Data from patent US20220380375A1, “SUBSTITUTED AROMATIC FUSED RING DERIVATIVE AND COMPOSITION COMPRISING SAME, AND USE THEREOF” (Shenzhen TargetRx, Inc., priority 2019, published 2022).

Experiments:
Type in all cases: cell-based
[1] = system: Ba/F3 FLT3-ITD^D835Y cells; assay: Cytotoxicity assay (CellTiter-Glo), Ba/F3 FLT3-ITD D835Y; details: ratio of Ba/F3 parental IC50 to Ba/F3 FLT3-ITD^D835Y IC50
Method: (§1) Inhibitory effects of example compounds on the activity of Ba/F3 parental generation, Ba/F3 KIF5B-RET, Ba/F3 KIF5B-RET^V804M, Ba/F3 KIF5B-RET^V804L, Ba/F3 KIF5B-RET^G810R, Ba/F3 FLT3-ITD, Ba/F3 FLT3-ITD^D835Y, Ba/F3 FLT3-ITD^F691L cells were determined.
(§2) Materials and reagents: fetal bovine serum FBS (GIBCO, Cat #10099141), CellTiter-Glo® Luminescent Cell Viability Assay kit (Promega, Cat #G7572), 96-well black-wall clear flat-bottom plate (Corning®, Cat #3603).
(§3) 1. Cells in the logarithmic growth phase were harvested and counted with a […]. Cell viability was detected by a trypan blue exclusion method, ensuring that cell viability was 90% or more; 2. Cell concentration was adjusted to about 3000 cells/well; 90 μl of cell suspension was added to each well of the 96-well plate; 3. The cells in the 96-well plate were incubated overnight under the condition of 37° C., 5% CO2, and 95% humidity.
(§4) 1. A series of compound solutions were formulated by 3.16-fold serial dilution starting from a concentration of 10 μM, resulting in 9 concentrations. 10 μL of the compound solutions were added in each well of the 96-well plate seeded with cells in triplicate for each compound concentration; 2. The cells in the 96-well plate added with compounds were further incubated under the condition of 37° C., 5% CO2, and 95% humidity for 72 hrs, and then CTG analysis was carried out.
(§5) 1. CTG reagent was thawed, and the cell plate was equilibrated at room temperature for 30 minutes; 2. An equal volume […] of CTG solution was added to each well; 3. The cell plate was shaken on an orbital shaker for 5 minutes to lyse the cells; 4. The cell plate was placed at RT for 20 minutes to stabilize the luminescence signal; 5. Luminescence value was read.
(§6) Data were Analyzed by GraphPad Prism 5.0 Software, and Fitted by Nonlinear S-Curve Regression to obtain a dose-response curve, from which IC50 values were calculated.
(§7) Cell survival rate (%)=(luminescence value of drug to be tested−luminescence value of culture medium control)/(luminescence value of cell control−luminescence value of culture medium control)×100%.

[2] = molecular target: T1, Ba/F3 FLT3-ITD^D835Y cells (Homo sapiens, UniProt P36888, D835Y, cells depend on it, form not given); assay: as above; details: CellTiter-Glo, 72 hrs; read-out: Ba/F3 FLT3-ITD^D835Y IC50
T1 construct: Ba/F3 FLT3-ITD^D835Y IC50 (nM); other: CellTiter-Glo, 72 hrs
T1 sequence (P36888 1-993 D835Y): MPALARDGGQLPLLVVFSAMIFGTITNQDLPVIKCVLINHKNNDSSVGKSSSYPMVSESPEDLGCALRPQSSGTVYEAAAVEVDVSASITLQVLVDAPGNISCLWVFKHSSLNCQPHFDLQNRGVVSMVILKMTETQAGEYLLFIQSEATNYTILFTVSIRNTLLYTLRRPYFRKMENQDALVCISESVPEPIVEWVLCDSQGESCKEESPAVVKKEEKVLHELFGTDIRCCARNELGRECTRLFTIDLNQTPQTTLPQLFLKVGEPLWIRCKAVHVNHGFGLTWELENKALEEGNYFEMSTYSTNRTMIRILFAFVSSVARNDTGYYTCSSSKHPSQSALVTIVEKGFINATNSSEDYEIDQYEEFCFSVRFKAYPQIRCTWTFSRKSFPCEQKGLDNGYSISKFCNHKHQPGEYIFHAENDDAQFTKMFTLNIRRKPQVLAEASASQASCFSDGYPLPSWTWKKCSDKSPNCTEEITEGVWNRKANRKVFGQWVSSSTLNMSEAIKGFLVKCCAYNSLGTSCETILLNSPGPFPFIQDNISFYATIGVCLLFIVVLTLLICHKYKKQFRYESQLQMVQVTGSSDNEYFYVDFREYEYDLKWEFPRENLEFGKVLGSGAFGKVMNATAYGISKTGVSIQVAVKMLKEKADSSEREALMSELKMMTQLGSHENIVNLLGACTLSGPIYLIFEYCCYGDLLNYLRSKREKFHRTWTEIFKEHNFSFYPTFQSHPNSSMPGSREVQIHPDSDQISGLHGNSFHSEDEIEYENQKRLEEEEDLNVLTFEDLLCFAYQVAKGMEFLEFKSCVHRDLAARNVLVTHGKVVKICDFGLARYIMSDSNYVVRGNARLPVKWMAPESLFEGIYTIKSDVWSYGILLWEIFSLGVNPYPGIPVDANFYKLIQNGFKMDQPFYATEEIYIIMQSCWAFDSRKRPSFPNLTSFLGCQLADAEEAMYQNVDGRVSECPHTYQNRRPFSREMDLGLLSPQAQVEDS
Method: as §1, §2, §3, §4, §5, §6, §7

[3] = molecular target: T2, Ba/F3 KIF5B-RET^G810R cells (Homo sapiens, UniProt P07949, G810R, cells depend on it); assay: Cytotoxicity assay (CellTiter-Glo), Ba/F3 KIF5B-RET G810R; details: CellTiter-Glo, 72 hrs; read-out: Ba/F3 KIF5B-RET^G810R IC50
T2 construct: Ba/F3 KIF5B-RET^G810R IC50 (nM); other: CellTiter-Glo, 72 hrs; fused on or other part: P33176 (Kinesin-1 heavy chain)
T2 sequence (P07949 whole entry G810R, the tested form may be a part): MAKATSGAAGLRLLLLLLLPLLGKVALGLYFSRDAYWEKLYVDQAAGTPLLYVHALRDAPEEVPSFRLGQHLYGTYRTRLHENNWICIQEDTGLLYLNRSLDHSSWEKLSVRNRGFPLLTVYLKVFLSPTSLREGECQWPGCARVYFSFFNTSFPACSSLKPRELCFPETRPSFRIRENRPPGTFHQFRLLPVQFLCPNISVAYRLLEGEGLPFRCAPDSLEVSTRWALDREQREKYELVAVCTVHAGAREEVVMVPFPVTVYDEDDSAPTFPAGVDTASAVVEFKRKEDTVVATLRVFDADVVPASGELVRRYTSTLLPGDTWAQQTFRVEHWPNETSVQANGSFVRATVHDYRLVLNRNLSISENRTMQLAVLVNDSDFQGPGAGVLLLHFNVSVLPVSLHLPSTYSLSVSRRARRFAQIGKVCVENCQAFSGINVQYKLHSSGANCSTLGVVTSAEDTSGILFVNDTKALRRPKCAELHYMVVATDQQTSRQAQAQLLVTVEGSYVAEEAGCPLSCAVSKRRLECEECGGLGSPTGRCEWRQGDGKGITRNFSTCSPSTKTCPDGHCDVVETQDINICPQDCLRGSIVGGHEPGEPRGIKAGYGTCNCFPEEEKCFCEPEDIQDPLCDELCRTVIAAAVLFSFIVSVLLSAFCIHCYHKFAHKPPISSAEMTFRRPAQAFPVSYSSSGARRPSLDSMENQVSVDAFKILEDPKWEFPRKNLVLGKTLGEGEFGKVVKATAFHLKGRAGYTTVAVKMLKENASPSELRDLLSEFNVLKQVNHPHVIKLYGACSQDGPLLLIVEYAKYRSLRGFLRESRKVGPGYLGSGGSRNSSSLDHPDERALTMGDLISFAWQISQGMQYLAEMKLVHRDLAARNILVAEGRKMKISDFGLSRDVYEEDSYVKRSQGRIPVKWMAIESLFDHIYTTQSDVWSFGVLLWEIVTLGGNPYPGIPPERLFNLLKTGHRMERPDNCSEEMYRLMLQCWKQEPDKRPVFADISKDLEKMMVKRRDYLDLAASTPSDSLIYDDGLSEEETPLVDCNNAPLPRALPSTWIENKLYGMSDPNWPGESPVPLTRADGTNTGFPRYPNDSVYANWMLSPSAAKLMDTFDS
Method: as §1, §2, §3, §4, §5, §6, §7

[4] = system: Ba/F3 KIF5B-RET^G810R cells; assay: as above; details: ratio of Ba/F3 parental IC50 to Ba/F3 KIF5B-RET^G810R IC50
Method: as §1, §2, §3, §4, §5, §6, §7

Ba/F3 KIF5B-RET cells [5] = molecular target: T3, Ba/F3 KIF5B-RET cells (Homo sapiens, UniProt P07949); assay: Cytotoxicity assay (CellTiter-Glo), Ba/F3 KIF5B-RET; details: CellTiter-Glo, 72 hrs; read-out: Ba/F3 KIF5B-RET IC50
T3 construct: Ba/F3 KIF5B-RET IC50 (nM); other: CellTiter-Glo, 72 hrs; fused on or other part: P33176 (Kinesin-1 heavy chain)
T3 sequence (P07949 whole entry, change not shown, the tested form may be a part): as the sequence (P07949 whole entry G810R, the tested form may be a part) above, with R810G counted along it
Method: as §1, §2, §3, §4, §5, §6, §7

Ba/F3 KIF5B-RET cells [6] = assay: as above; details: ratio of Ba/F3 parental IC50 to Ba/F3 KIF5B-RET IC50
Method: as §1, §2, §3, §4, §5, §6, §7

[7] = system: Ba/F3 FLT3-ITD^F691L cells; assay: Cytotoxicity assay (CellTiter-Glo), Ba/F3 FLT3-ITD F691L; details: ratio of Ba/F3 parental IC50 to Ba/F3 FLT3-ITD^F691L IC50
Method: as §1, §2, §3, §4, §5, §6, §7

[8] = system: Ba/F3 parental generation cells; assay: Cytotoxicity assay (CellTiter-Glo), Ba/F3 parental; details: Mus musculus, BaF3, Table 2, 72 hrs
Method: as §1, §2, §3, §4, §5, §6, §7

SMILES	Ba/F3 FLT3-ITD^D835Y Selectivity on parental generation [1]	GI50 [2]	GI50 [3]	Ba/F3 KIF5B-RET^G810R Selectivity on parental generation [4]	GI50 (Ba/F3 KIF5B-RET cells [5])	Ba/F3 KIF5B-RET Selectivity on parental generation (Ba/F3 KIF5B-RET cells [6])	Ba/F3 FLT3-ITD^F691L Selectivity on parental generation [7]	IC50 [8]
CC(C)n1nc(-c2ccc(NC(=O)Nc3cc(C(C)(C)C(F)(F)F)on3)cc2)c2c(N)ncnc21 [Compound T-2, 1-(4-(4-amino-1-isopropyl-1H-pyrazolo[3,4-d]pyrimidin-3-yl)phenyl)-3-(5-(1,1,1-trifluoro-2-methylprop-2-yl)isoxazol-3-yl)urea]	35.48	6.05 nM	2.98 nM	113.4	0.16 nM	2111.4	115.3	338 nM
CC(C)c1nc(-c2ccc(CC(=O)Nc3cc(C(C)(C)C(F)(F)F)on3)cc2)c2c(N)nccn12 [Compound T-4, 2-(4-(8-amino-3-isopropylimidazo[1,5-a]pyrazin-1-yl)phenyl)-N-(5-(1,1,1-trifluoro-2-methylprop-2-yl)isoxazol-3-yl)acetamide]	32.03	23.1 nM	25.5 nM	27.5	1.56 nM	449.4	42.2	701 nM
CC(C)n1cc(-c2ccc(CC(=O)Nc3cc(C(C)(C)C(F)(F)F)on3)cc2)c2c(N)ncnc21 [Compound T-3, 2-(4-(4-amino-7-isopropyl-7H-pyrrolo[2,3-d]pyrimidin-5-yl)phenyl)-N-(5-(1,1,1-trifluoro-2-methylprop-2-yl)isoxazol-3-yl)acetamide]	218.67	2.92 nM	3.84 nM	188.7	0.58 nM	1249.0	746.8	724 nM
[2H]C([2H])([2H])C(n1cc(-c2ccc(CC(=O)Nc3cc(C(C)(C)C(F)(F)F)on3)cc2)c2c(N)ncnc21)C([2H])([2H])[2H] [Compound T-12, 2-(4-(4-amino-7-(propen-2-yl-1,1,1,3,3,d6)-7H-pyrrolo[2,3-d]pyrimidin-5-yl)phenyl)-N-(5-(1,1,1-trifluo-2-methylpropan-2-yl)isoxazol-3-yl)acetamide]	87.2	12.3 nM	6.4 nM	167.5	2.24 nM	478.6	289.7	1070 nM
CC(C)c1nc(-c2ccc(CC(=O)Nc3cc(C(C)(C)C(F)(F)F)on3)cc2)c2c(N)ncnn12 [Compound T-10, 2-(4-(4-amino-7-isopropylimidazo[5,1-f][1,2,4]triazin-5-yl)phenyl)-N-(5-(1,1,1-trifluoro-2-methylprop-2-yl)isoxazol-3-yl)acetamide]	48.3	46.4 nM	2.78 nM	806.5	3.68 nM	609.2	57.3	2240 nM
[2H]C([2H])([2H])C(n1nc(-c2ccc(CC(=O)Nc3cc(C(C)(C)C(F)(F)F)no3)cc2)c2c(N)ncnc21)C([2H])([2H])[2H] [Compound T-11, 2-(4-(4-amino-1-(propan-2-yl-1,1,1,3,3,3-d6)-1H-pyrazolo[3,4-d]pyrimidin-3-yl)phenyl)-N-(3-(1,1,1-trifluoro-2-methylpropan-2-yl)isoxazol-5-yl)acetamide]	307.7	17.9 nM	5.86 nM	939.8	1.3 nM	4236.2	404.9	5510 nM
CC(C)n1nc(-c2ccc(CC(=O)Nc3cc(C(C)(C)C(F)(F)F)on3)c(F)c2)c2c(N)ncnc21 [Compound T-6, 2-(4-(4-amino-1-isopropyl-1H-pyrazolo[3,4-d]pyrimidin-3-yl)-2-fluorophenyl)-N-(5-(1,1,1-trifluoro-2-methylprop-2-yl)isoxazol-3-yl)acetamide]	193.58	9.6 nM	2.92 nM	717.6	0.31 nM	6759.6	334.7	2100 nM
CC(C)n1nc(-c2ccc(CC(=O)Nc3cc(C(C)(C)C(F)(F)F)no3)cc2)c2c(N)ncnc21 [Compound T-8, 2-(4-(4-amino-1-isopropyl-1H-pyrazolo[3,4-d]pyrimidin-3-yl)phenyl)-N-(3-(1,1,1-trifluoro-2-methylprop-2-yl)isoxazol-5-yl)acetamide]	500.9	7.34 nM	2.39 nM	1538.5	1.03 nM	3569.9	585.5	3680 nM
CC(C)n1nc(-c2ccc(CC(=O)Nc3cc(C(C)(C)C(F)(F)F)on3)cc2)c2c(N)ncnc21 [Compound T-1, 2-(4-(4-amino-1-isopropyl-1H-pyrazolo[3,4-d]pyrimidin-3-yl)phenyl)-N-(5-(1,1,1-trifluoro-2-methylprop-2-yl)isoxazol-3-yl)acetamide]	137.97	14.4 nM	2.64 nM	613.8	0.15 nM	10802.6	210.4	1620 nM
